The text below walks through data of US20250361469A1, “Lymph Node on a Chip Device and Method” (New York University, priority 2024, published 2025).

For one assay, the system named is DCs and FRCs. Description: CCL19 and CCL21 secretion by DCs and FRCs in paracortical area of LN chip under TNF-α (ELISA). In kind it is cell-based, human. Particulars: inflammatory conditions affected by TNF-α. (In general: An ELISA detects its analyte on a solid surface through an enzyme-linked reagent.)
Assay [1] concerns DCs and T cells in LN chip. The assay is described as follows: OVA I model antigen initiating adaptive immune process in the LN chip. The format is cell-based, human.

As for TNF-α, in the assay with DCs and FRCs, the “secretion of CCL19 by DCs and FRCs” value is listed as “increases”; the “secretion of CCL21 by DCs and FRCs” value is listed as “increases”.

“Ovalbimin [OVA I, model antigen (Sigma Aldrich) to initiate the adaptive immune process in the LN chip]”: the “DC maturation (imDCs to mDCs)” value in assay [1] (OVA I as model antigen in LN chip) was “transformed into mDCs”. In assay [1] (OVA I-induced mDCs vs imDCs), the T cell activation result is listed as “enhanced”, the T cell migration result is recorded as “enhanced” and the T cell proliferation entry is “enhanced”.
